Laboratory results: patent US7683095B2, “Compositions and methods of treating, reducing and preventing cardiovascular diseases and disorders with polymethoxyflavones” (The United States of America as represented by the …, priority 1998, dated 2010)
≈ marks a conversion by molar mass, not a printed value.

Test system: apolipoprotein B (apoB) production
Assay: apo B secretion into medium of HepG2 cells, competitive ELISA
Assay type: cell-based, human
Settings: for inhibitory effect on apo-B production: result in words, these results along with other preliminary studies, alone or in combination; for % apo B reduction / Apo B μg/mL medium / % apo B in medium: HepG2, 24 hours; for IC50: Homo sapiens, apo B in medium of HepG2 cells, 24 hours incubation, read-out: IC50 concentrations; for % apo B in medium: percent of control
Description: Limocitrin derivatives, quercetin derivatives, naturally occurring polymethoxyflavones, and tocotrienols were tested for cholesterol lowering activity in HepG2 cells. Confluent HepG2 cells were preincubated for 24 hours in a lipoprotein-free medium (Minimum Essential Medium (MEM), Life Technologies, Burlington, Canada) in which the fetal bovine serum (Life Technologies, Burlington, Canada) was replaced by bovine serum albumin (BSA, Life Technologies, Burlington, Canada) to inhibit cell proliferation and to stimulate synthesis of cholesterol-containing lipoproteins. Cells were subsequently incubated for another 24 hours in the same medium in the presence or absence of limocitrin derivatives, quercetin derivatives, naturally occurring polymethoxyflavones, or tocotrienols (See Table 1) at the highest concentrations sustaining about 100%±10% cell viability, as determined by the 3-(4,5-dimethylthiazol-2-yl)-2,5-diphenyltetrazolium bromide (MTT) viability assay. The test compounds were added to the cell culture medium after solubilization in dimethyl sulfoxide (DMSO) and filter sterilized. […] For each experiment, equal concentrations of solvent were added to all treatment media and to a control medium (without tested compounds). At the end of the incubation, culture media were collected and the concentration of the LDL structural protein, apo-B, was measured by ELISA. The competitive Elisa assay kit for determination of human apo B (Ortho Diagostics, LaJolla, Calif.) measures medium apo B concentrations within the range 0.4-0.031 μg/mL. In this assay, microtiter 96-well plates are coated with monoclonal antibody against human apo B, which binds apo B epitope from human LDL (standard curve, control sera with high and low content of human apo B) or from LDL-like lipoproteins secreted by HepG2 cells (tested media, usually 2× diluted with Ca^2+- and […]-free phosphate buffered saline (PBS)). After the exposure, a fraction of antibody is blocked and the remaining amount is captured by a subsequent incubation with conjugate containing a secondary antibody (against anti-human apo B) coupled with horseradish peroxidase. The following incubation with horseradish peroxidase substrate, o-phenylenediamine, produces a yellow color change proportional to the amount of apo B present, and the optical density of samples is measured at 490-492 nm against the blank PBS/conjugate wells. To determine whether evaluated compounds cross-react with Elisa assay, in separate study, various doses of compounds were tested in presence of cell-free culture media.
Amount of lipoprotein-associated apo-B in the media net apo-B secretion) was determined as described above, and calculated per mg cell protein. Net apo B3 secretion was also expressed as percent of control (amount of apo B in medium from cells incubated without tested compounds).

[1] = concentration 6.25 μg/mL medium
[2] = concentration 12.5 μg/mL medium
[3] = concentration 25.0 μg/mL medium
[4] = concentration 50.0 μg/mL medium
[5] = concentration 3.12 μg/mL medium

| Compound | inhibitory effect on apo-B production | % apo B reduction [1] | Apo B μg/mL medium [1] | % apo B reduction [2] | Apo B μg/mL medium [2] | % apo B reduction [3] | Apo B μg/mL medium [3] | % apo B in medium [1] | % apo B in medium [2] | % apo B in medium [3] | other results |
| --- | --- | --- | --- | --- | --- | --- | --- | --- | --- | --- | --- |
| COc1ccc(-c2oc3c(OC)c(OC)cc(O)c3c(=O)c2OC)cc1OC [limocitrin-3,7,4′-trimethylether, 5-hydroxy-3,7,8,3′,4′-pentamethoxyflavone] | inhibitory effects | – | – | – | – | – | – | – | – | – | – |
| COc1cc(O)c2c(=O)c(OC)c(-c3ccc(OC)c(OC)c3)oc2c1 [quercetin tetramethylether, 5-hydroxy-3,7,3′,4′-tetramethoxyflavone] | inhibitory effects | – | – | – | – | – | – | – | – | – | – |
| COc1ccc(-c2cc(=O)c3c(OC)c(OC)c(OC)c(OC)c3o2)cc1OC [nobiletin, 5,6,7,8,3′,4′-hexamethoxyflavone] | inhibitory effects | 33% | 0.37 ± 0.09 μg/mL medium | 68% | 0.175 ± 0.03 μg/mL medium | 82% | 0.10 ± 0.01 μg/mL medium | 67 ± 16% | 32 ± 6% | 18 ± 1% | % apo B reduction [4]: 83%; Apo B μg/mL medium [4]: 0.095 ± 0.01 μg/mL medium; IC50: 4.9 µg/mL (≈ 12.2 µM); % apo B in medium [4]: 17 ± 1% |
| COc1ccc(-c2oc3c(OC)c(OC)cc(OC(C)=O)c3c(=O)c2OC)cc1OC [limocitrin-3,7,4′-trimethylether-5-acetate] | inhibitory effects | – | – | – | – | – | – | – | – | – | – |
| COc1ccc(-c2cc(=O)c3c(OC)c(OC)c(OC)c(OC)c3o2)cc1 [tangeretin, 5,6,7,8,4′-pentamethoxyflavone] | inhibitory effects | 78% | 0.055 ± 0.01 μg/mL medium | 81% | 0.048 ± 0.01 μg/mL medium | 86% | 0.035 ± 0.01 μg/mL medium | 22 ± 2% | 19 ± 2% | 14 ± 1% | % apo B reduction [5]: 68%; Apo B μg/mL medium [5]: 0.080 ± 0.02 μg/mL medium; IC50: 2.5 µg/mL (≈ 6.71 µM); % apo B in medium [5]: 32 ± 8% |
| COc1ccc(-c2oc3c(OC)c(OC)c(OC)c(OC)c3c(=O)c2OC)cc1OC [Heptamethoxyflavone, 3,5,6,7,8,3′,4′-heptamethoxyflavone] | inhibitory effects | 45% | 0.138 ± 0.02 μg/mL medium | 68% | 0.080 ± 0.02 μg/mL medium | 81% | 0.048 ± 0.01 μg/mL medium | 55 ± 5% | 32 ± 9% | 19 ± 3% | % apo B reduction [4]: 82%; Apo B μg/mL medium [4]: 0.045 ± 0.01 μg/mL medium; IC50: 7.8 µg/mL (≈ 18 µM); % apo B in medium [4]: 18 ± 2% |
| COc1ccc(-c2cc(=O)c3c(OC)cc(OC)c(OC)c3o2)cc1 [tetra-O-methylisoscutellarein, 5,7,8,4′-tetramethoxyflavone] | inhibitory effects | – | – | – | – | – | – | – | – | – | – |
| COc1ccc(-c2cc(=O)c3c(O)c(OC)c(OC)c(OC)c3o2)cc1OC [5-desmethylnobiletin, 5-hydroxy-6,7,8,3′,4′-pentamethoxyflavone] | inhibitory effects | – | – | – | – | – | – | – | – | – | – |
| CCOc1ccc(-c2oc3c(OC)c(OCC)cc(OCC)c3c(=O)c2OCC)cc1OC [limocitrin-3,5,7,4′-tetraethylether] | inhibitory effects | – | – | – | – | – | – | – | – | – | – |
| COc1ccc(-c2cc(=O)c3c(OC)c(OC)c(OC)cc3o2)cc1 [Tetra-O-methyl-Scutellarein] | – | 29% | 0.305 ± 0.03 μg/mL medium | 41% | 0.255 ± 0.06 μg/mL medium | – | – | 71 ± 7% | 59 ± 13% | – | – |
| COc1ccc(-c2cc(=O)c3c(OC)c(OC)c(OC)cc3o2)cc1OC [Sinensetin, 5,6,7,3′,4′-pentamethoxyflavone] | inhibitory effects | 25% | 0.70 ± 0.13 μg/mL medium | 42% | 0.54 ± 0.04 μg/mL medium | 62% | 0.35 ± 0.04 μg/mL medium | 75 ± 14% | 58 ± 4% | 38 ± 5% | % apo B reduction [4]: 72%; Apo B μg/mL medium [4]: 0.26 ± 0.02 μg/mL medium; IC50: 17.8 µg/mL (≈ 47.8 µM); % apo B in medium [4]: 28 ± 5% |
| COc1cc(OC)c2c(=O)c(OC(C)=O)c(-c3ccc(OC)c(OC)c3)oc2c1 [quercetin-5,7,3′,4′-tetramethylether-3-acetate] | inhibitory effects | – | – | – | – | – | – | – | – | – | – |
| COc1c(-c2ccc(OCc3ccccc3)c(OCc3ccccc3)c2)oc2cc(OCc3ccccc3)cc(OC)c2c1=O [quercetin-3,5-dimethylether-7,3′,4′-tribenzyl ether] | inhibitory effects | – | – | – | – | – | – | – | – | – | – |
| COc1cc(OC)c2c(=O)c(O)c(-c3ccc(OC)c(OC)c3)oc2c1 [quercetin-5,7,3′,4′-tetramethylether, 3-hydroxy-5,7,3′,4′-tetramethoxyflavone] | inhibitory effects | – | – | – | – | – | – | – | – | – | – |
| COc1ccc(-c2cc(=O)c3c(O)c(OC)c(OC)cc3o2)cc1OC [5-desmethylsinensetin, 5-hydroxy-6,7,3′,4′-tetramethoxyflavone] | inhibitory effects | – | – | – | – | 27% | 0.84 ± 0.21 μg/mL medium | – | – | 73 ± 18% | % apo B reduction [4]: 64%; Apo B μg/mL medium [4]: 0.41 ± 0.20 μg/mL medium; % apo B in medium [4]: 36 ± 1% |
| COc1ccc(-c2oc3c(OC)c(OC)cc(OC)c3c(=O)c2OC)cc1OC [limocitrin-3,5,7,4′-tetramethylether, 3,5,7,8,3′,4′-hexamethoxyflavone] | inhibitory effects | – | – | – | – | – | – | – | – | – | – |
